Measurements from patent US20230085307A1, “PYRIDAZINONE COMPOUND AND HERBICIDE” (NISSAN CHEMICAL CORPORATION, priority 2019, published 2023).

Assays:
[1] = system: redroot pigweed; test: Test Example 5: herbicidal effect by foliage application, plastic box (Table 20, symbol N); assay type: in vivo, redroot pigweed (Amaranthus retroflexus); settings: foliage application, evaluated three weeks after application
In short: (§1)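 Plants sown in sterilized diluvial soil and grown 14 days in a greenhouse at 25° C to 30° C, then sprayed on the foliage with the compound's emulsion diluted in water to a predetermined herbicide amount. Injury to weeds and crops scored three weeks after application on a visual rating scale.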

[2] = system: persian speedwell; test: Test Example 5: herbicidal effect by foliage application, plastic box (Table 20, symbol R); assay type: in vivo, Persian speedwell (Veronica persica); settings: foliage application, evaluated three weeks after application
In short: as §1

[3] = system: velvetleaf; test: Test Example 4: herbicidal effect by soil treatment (Table 19, symbol M); assay type: in vivo, velvetleaf (Abutilon theophrasti); settings: amount of applied herbicide 320 g/ha
In short: (§2)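 Seeds were sown in sterilized diluvial soil and covered with about 1.5 cm of soil. An emulsion formulation diluted with water to a predetermined herbicide amount was sprayed evenly onto the soil surface. Plants grew in a greenhouse at 25° C. to 30° C., and the effect was scored three weeks after application using criteria from an earlier test.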

[4] = system: southern crabgrass; test: Test Example 5: herbicidal effect by foliage application, plastic box (Table 20, symbol F); assay type: in vivo, southern crabgrass (Digitaria ciliaris); settings: foliage application, evaluated three weeks after application
In short: as §1

[5] = system: green foxtail; test: Test Example 5: herbicidal effect by foliage application, plastic box (Table 20, symbol G); assay type: in vivo, green foxtail (Setaria viridis); settings: foliage application, evaluated three weeks after application
In short: as §1

[6] = system: redroot pigweed; test: Test Example 4: herbicidal effect by soil treatment (Table 19, symbol N); assay type: in vivo, redroot pigweed (Amaranthus retroflexus); settings: amount of applied herbicide 320 g/ha
In short: as §2

[7] = system: chickweed; test: Test Example 4: herbicidal effect by soil treatment (Table 19, symbol P); assay type: in vivo, common chickweed (Stellaria media); settings: amount of applied herbicide 320 g/ha
In short: as §2

[8] = system: wild oat; test: Test Example 4: herbicidal effect by soil treatment (Table 19, symbol I); assay type: in vivo, wild oat (Avena fatua); settings: amount of applied herbicide 320 g/ha
In short: as §2

[9] = system: barnyard grass; test: Test Example 3: herbicidal effect by foliage application, Wagner pot (Table 18, symbol H); assay type: in vivo, barnyard grass (Echinochloa crus-galli); settings: amount of applied herbicide 320 g/ha
In short: (§3)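 Plants were sown in alluvial soil held under 0.1–0.5 cm standing water and grown 14 days in a greenhouse at 25–30 °C. An emulsifiable formulation, water-diluted to the set dose, was then sprayed onto the foliage, and effects were scored three weeks later using previously defined criteria.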

[10] = system: lambsquarters; test: Test Example 5: herbicidal effect by foliage application, plastic box (Table 20, symbol O); assay type: in vivo, lambsquarters (Chenopodium album); settings: foliage application, evaluated three weeks after application
In short: as §1

[11] = system: barnyard grass; test: Test Example 5: herbicidal effect by foliage application, plastic box (Table 20, symbol H); assay type: in vivo, barnyard grass (Echinochloa crus-galli); settings: foliage application, evaluated three weeks after application
In short: as §1

[12] = system: windgrass; test: Test Example 5: herbicidal effect by foliage application, plastic box (Table 20, symbol L); assay type: in vivo, windgrass (Apera spica-venti); settings: foliage application, evaluated three weeks after application
In short: as §1

[13] = system: Italian ryegrass; test: Test Example 4: herbicidal effect by soil treatment (Table 19, symbol K); assay type: in vivo, Italian ryegrass (Lolium multiflorum); settings: amount of applied herbicide 320 g/ha
In short: as §2

[14] = system: chickweed; test: Test Example 5: herbicidal effect by foliage application, plastic box (Table 20, symbol P); assay type: in vivo, common chickweed (Stellaria media); settings: foliage application, evaluated three weeks after application
In short: as §1

[15] = system: blackgrass; test: Test Example 5: herbicidal effect by foliage application, plastic box (Table 20, symbol J); assay type: in vivo, blackgrass (Alopecurus myosuroides); settings: foliage application, evaluated three weeks after application
In short: as §1

[16] = system: blackgrass; test: Test Example 4: herbicidal effect by soil treatment (Table 19, symbol J); assay type: in vivo, blackgrass (Alopecurus myosuroides); settings: amount of applied herbicide 320 g/ha
In short: as §2

[17] = system: green foxtail; test: Test Example 4: herbicidal effect by soil treatment (Table 19, symbol G); assay type: in vivo, green foxtail (Setaria viridis); settings: amount of applied herbicide 320 g/ha
In short: as §2

[18] = system: southern crabgrass; test: Test Example 4: herbicidal effect by soil treatment (Table 19, symbol F); assay type: in vivo, southern crabgrass (Digitaria ciliaris); settings: amount of applied herbicide 320 g/ha
In short: as §2

[19] = system: windgrass; test: Test Example 4: herbicidal effect by soil treatment (Table 19, symbol L); assay type: in vivo, windgrass (Apera spica-venti); settings: amount of applied herbicide 320 g/ha
In short: as §2

[20] = system: Chinese sprangletop; test: Test Example 3: herbicidal effect by foliage application, Wagner pot (Table 18, symbol D); assay type: in vivo, chinese sprangletop (Leptochloa chinensis); settings: amount of applied herbicide 320 g/ha
In short: as §3

[21] = system: wild oat; test: Test Example 5: herbicidal effect by foliage application, plastic box (Table 20, symbol I); assay type: in vivo, wild oat (Avena fatua); settings: foliage application, evaluated three weeks after application
In short: as §1

[22] = system: velvetleaf; test: Test Example 5: herbicidal effect by foliage application, plastic box (Table 20, symbol M); assay type: in vivo, velvetleaf (Abutilon theophrasti); settings: foliage application, evaluated three weeks after application
In short: as §1

[23] = system: rice flat sedge; test: Test Example 3: herbicidal effect by foliage application, Wagner pot (Table 18, symbol E); assay type: in vivo, rice flat sedge (Cyperus iria); settings: amount of applied herbicide 320 g/ha
In short: as §3

[24] = system: persian speedwell; test: Test Example 4: herbicidal effect by soil treatment (Table 19, symbol R); assay type: in vivo, Persian speedwell (Veronica persica); settings: amount of applied herbicide 320 g/ha
In short: as §2

[25] = system: lambsquarters; test: Test Example 4: herbicidal effect by soil treatment (Table 19, symbol O); assay type: in vivo, lambsquarters (Chenopodium album); settings: amount of applied herbicide 320 g/ha
In short: as §2

[26] = system: barnyard grass; test: Test Example 4: herbicidal effect by soil treatment (Table 19, symbol H); assay type: in vivo, barnyard grass (Echinochloa crus-galli); settings: amount of applied herbicide 320 g/ha
In short: as §2

[27] = system: Italian ryegrass; test: Test Example 5: herbicidal effect by foliage application, plastic box (Table 20, symbol K); assay type: in vivo, Italian ryegrass (Lolium multiflorum); settings: foliage application, evaluated three weeks after application
In short: as §1

SMILES | herbicidal effect on M: velvetleaf [3] | herbicidal effect on N: redroot pigweed [6] | herbicidal effect on P: chickweed [7] | herbicidal effect on I: wild oat [8] | herbicidal effect on H: barnyard grass [9] | herbicidal effect on K: Italian ryegrass [13] | herbicidal effect on J: blackgrass [16] | herbicidal effect on G: green foxtail [17] | herbicidal effect on F: southern crabgrass [18] | herbicidal effect on L: windgrass [19] | herbicidal effect on D: Chinese sprangletop [20] | herbicidal effect on E: rice flat sedge [23] | herbicidal effect on R: persian speedwell [24] | herbicidal effect on O: lambsquarters [25] | herbicidal effect on H: barnyard grass [26] | also measured
CSc1cccc(-c2sc3ccc(F)cc3c2-c2c(O)c(C)nn(C)c2=O)c1 [2-240] | 1 (Herbicidal rate of 5% or more and less than 20%) | 4 (Herbicidal rate of 70% or more and less than 90%) | 1 (Herbicidal rate of 5% or more and less than 20%) | 1 (Herbicidal rate of 5% or more and less than 20%) | 4 (Herbicidal rate of 70% or more and less than 90%) | 0 (Herbicidal rate of 5% or less (almost no effect)) | 0 (Herbicidal rate of 5% or less (almost no effect)) | 5 (Herbicidal rate of 90% or more (almost completely withered)) | 4 (Herbicidal rate of 70% or more and less than 90%) | 0 (Herbicidal rate of 5% or less (almost no effect)) | 3 (Herbicidal rate of 40% or more and less than 70%) | 4 (Herbicidal rate of 70% or more and less than 90%) | 5 (Herbicidal rate of 90% or more (almost completely withered)) | 3 (Herbicidal rate of 40% or more and less than 70%) | 2 (Herbicidal rate of 20% or more and less than 40%) | herbicidal effect on N: redroot pigweed (criteria 0-5) ([1]; 320 g/ha): 5 (Herbicidal rate of 90% or more (almost completely withered)); herbicidal effect on R: persian speedwell (criteria 0-5) ([2]; 320 g/ha): 5 (Herbicidal rate of 90% or more (almost completely withered)); herbicidal effect on F: southern crabgrass (criteria 0-5) ([4]; 320 g/ha): 5 (Herbicidal rate of 90% or more (almost completely withered)); herbicidal effect on G: green foxtail (criteria 0-5) ([5]; 320 g/ha): 5 (Herbicidal rate of 90% or more (almost completely withered)); herbicidal effect on O: lambsquarters (criteria 0-5) ([10]; 320 g/ha): 5 (Herbicidal rate of 90% or more (almost completely withered)); herbicidal effect on H: barnyard grass (criteria 0-5) ([11]; 320 g/ha): 3 (Herbicidal rate of 40% or more and less than 70%); herbicidal effect on L: windgrass (criteria 0-5) ([12]; 320 g/ha): 4 (Herbicidal rate of 70% or more and less than 90%); herbicidal effect on P: chickweed (criteria 0-5) ([14]; 320 g/ha): 5 (Herbicidal rate of 90% or more (almost completely withered)); herbicidal effect on J: blackgrass (criteria 0-5) ([15]; 320 g/ha): 3 (Herbicidal rate of 40% or more and less than 70%); herbicidal effect on I: wild oat (criteria 0-5) ([21]; 320 g/ha): 5 (Herbicidal rate of 90% or more (almost completely withered)); herbicidal effect on M: velvetleaf (criteria 0-5) ([22]; 320 g/ha): 4 (Herbicidal rate of 70% or more and less than 90%); herbicidal effect on K: Italian ryegrass (criteria 0-5) ([27]; 320 g/ha): 3 (Herbicidal rate of 40% or more and less than 70%)
Cc1nn(C)c(=O)c(-c2c(-c3ccc(OC(F)F)cc3)sc3ccc(F)cc23)c1OC(=O)N(C)C [2-291] | 0 (Herbicidal rate of 5% or less (almost no effect)) | 3 (Herbicidal rate of 40% or more and less than 70%) | 4 (Herbicidal rate of 70% or more and less than 90%) | 0 (Herbicidal rate of 5% or less (almost no effect)) | 4 (Herbicidal rate of 70% or more and less than 90%) | 0 (Herbicidal rate of 5% or less (almost no effect)) | 0 (Herbicidal rate of 5% or less (almost no effect)) | 0 (Herbicidal rate of 5% or less (almost no effect)) | 0 (Herbicidal rate of 5% or less (almost no effect)) | 0 (Herbicidal rate of 5% or less (almost no effect)) | 3 (Herbicidal rate of 40% or more and less than 70%) | 2 (Herbicidal rate of 20% or more and less than 40%) | 3 (Herbicidal rate of 40% or more and less than 70%) | 3 (Herbicidal rate of 40% or more and less than 70%) | 0 (Herbicidal rate of 5% or less (almost no effect)) | N: redroot pigweed, herbicidal effect (criteria 0-5) ([1]; AAH 320 g/ha): 5 (Herbicidal rate of 90% or more (almost completely withered)); R: persian speedwell, herbicidal effect (criteria 0-5) ([2]; AAH 320 g/ha): 5 (Herbicidal rate of 90% or more (almost completely withered)); F: southern crabgrass, herbicidal effect (criteria 0-5) ([4]; AAH 320 g/ha): 0 (Herbicidal rate of 5% or less (almost no effect)); G: green foxtail, herbicidal effect (criteria 0-5) ([5]; AAH 320 g/ha): 4 (Herbicidal rate of 70% or more and less than 90%); O: lambsquarters, herbicidal effect (criteria 0-5) ([10]; AAH 320 g/ha): 5 (Herbicidal rate of 90% or more (almost completely withered)); H: barnyard grass, herbicidal effect (criteria 0-5) ([11]; AAH 320 g/ha): 0 (Herbicidal rate of 5% or less (almost no effect)); L: windgrass, herbicidal effect (criteria 0-5) ([12]; AAH 320 g/ha): 0 (Herbicidal rate of 5% or less (almost no effect)); P: chickweed, herbicidal effect (criteria 0-5) ([14]; AAH 320 g/ha): 5 (Herbicidal rate of 90% or more (almost completely withered)); J: blackgrass, herbicidal effect (criteria 0-5) ([15]; AAH 320 g/ha): 3 (Herbicidal rate of 40% or more and less than 70%); I: wild oat, herbicidal effect (criteria 0-5) ([21]; AAH 320 g/ha): 0 (Herbicidal rate of 5% or less (almost no effect)); M: velvetleaf, herbicidal effect (criteria 0-5) ([22]; AAH 320 g/ha): 2 (Herbicidal rate of 20% or more and less than 40%); K: Italian ryegrass, herbicidal effect (criteria 0-5) ([27]; AAH 320 g/ha): 3 (Herbicidal rate of 40% or more and less than 70%)
